Patent US20040023884A1, “Biologically active peptides from functional domains of bactericidal/permeability-increasing protein and uses thereof” (priority 1993, published 2004)
Entries after “also recorded” stand apart in the source; their conditions may differ.

How the values were obtained:
[1] = system: E. coli 0111:B4 (smooth) bacteria; assay: Radial diffusion bactericidal assay, E. coli 0111:B4; format: cell-based; conditions: radial diffusion; for pmol added to well to achieve a 30 mm^2 bactericidal zone, E. coli O111:B4: PROBIT analysis, E. coli O111:B4 (smooth)
E. coli O86a:K61 = assay: Radial diffusion bactericidal assay, E. coli O86a:K61; format: cell-based; conditions: FIG. 11i
[2] = 3H-heparin binding assay (affinity and capacity); conditions: for Heparin Capacity: heparin bound at saturation; for Kd: read-out: Heparin Affinity; for cpm ^3H-Heparin bound: 100 picomoles of each fragment per well, saturating 3H-heparin 20 μg/mL, mean of duplicate wells ± range
Procedure, shortened: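 Bound 3H-heparin was counted by liquid scintillation after 1 h incubation at 4 °C with fragments immobilised on PVDF-bottomed wells, then washing in blocking buffer. Signal was corrected for BSA-related background, and varying amounts of rBPI23 were used as positive control.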

E. coli 0113 LPS = assay: Limulus Amoebocyte Lysate (LAL) inhibition assay; format: biochemical
Procedure, shortened: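 BPI proteolytic fragments incubated with E. coli 0113 LPS (4 ng/mL final) for 3 h at 37 °C, then diluted in D-PBS to 200 pg/mL LPS for chromogenic LAL. Lysate 25 min, substrate 20–30 min at room temperature, acetic acid stop; OD405 expressed as percent LPS inhibition.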

[3] = system: rough mutant E. coli J5 bacteria; assay: Radial diffusion bactericidal assay, E. coli J5; format: cell-based; conditions: for pmol added to well to achieve a 30 mm^2 bactericidal zone, E. coli J5 / bactericidal activity (in words): radial diffusion; for pmol added to well to achieve a 30 mm^2 bactericidal zone, E. coli J5: PROBIT analysis, E. coli J5 (rough); for bactericidal activity (in words): E. coli J5
Procedure, shortened: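 Wells received 5 or 10 μL of BPI fragment, pre-incubated 3 h at 37 °C. The underlayer agarose carried washed log-phase organisms at 4×10^6 CFU/mL.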

Staphylococcus aureus = assay: Radial diffusion bactericidal assay, Staphylococcus aureus; format: cell-based
[4] = system: L-form of S. aureus ATCC 19640; assay: Activity against L-forms of gram-positive bacteria; format: cell-based
Description: The bactericidal capacity of BPI peptides provided by the invention was also tested against Gram-positive bacteria (See Table VIII A). […] In addition, peptides were tested for their activity against L-forms of gram-positive bacteria, such as the L-form of S. aureus ATCC 19640.

E. coli O75 = assay: Radial diffusion bactericidal assay, E. coli O75; format: cell-based; conditions: FIG. 11d; up to about 2000 pmol
Klebsiella pneumoniae = assay: Radial diffusion bactericidal assay, Klebsiella pneumoniae; format: cell-based
E. coli strain 07-K1 = assay: Radial diffusion bactericidal assay, E. coli 07-K1; format: cell-based; conditions: FIG. 10c
Description: BPI proteolytic fragments produced according to Example 1 were screened for bactericidal effects using rough mutant E. coli J5 bacteria in a radial diffusion assay. Specifically, an overnight culture of E. coli J5 was diluted 1:50 into fresh tryptic soy broth and incubated for 3 hours at 37° C. to attain log phase growth of the culture. Bacteria were then pelleted at 3,000 rpm for 5 minutes in a Sorvall RT6000B centrifuge (Sorvall Instruments, Newton, Conn.). 5 mL of 10 mM sodium phosphate buffer (pH 7.4) was added and the preparation was re-pelleted. […] The bacteria were diluted to 4×10^6 CFU/mL in 10 mL of molten underlayer agarose (at approximately 45° C.) and inverted repeatedly to mix in 15 mL polypropylene tubes conventionally used for this purpose.
The entire contents of such tubes were then poured into a level square petri dish and distributed evenly by rocking the dish side-to-side. […] A series of wells were then punched into the hardened agarose using a sterile 3 mm punch attached to a vacuum apparatus. The punch was sterilized with 100% alcohol and allowed to air dry prior to use to avoid contaminating the bacterial culture.
5 or 10 μL of each of the BPI fragments were carefully pipetted into each well. As a negative control, dilution buffer (pH 8.3) was added to a separate well, and rBPI23 at concentrations of 5 μg/mL and 1 μg/mL were also added as positive controls. Each plate was incubated at 37° C. for 3 hours, and then 10 mL of molten overlayer agarose (at approximately 45° C.) was added into the level petri dish, allowed to harden and incubated overnight at 37° C. […] The bacterial zones were measured with a micrometer.
Additional experiments were performed using various other bacteria as target cells to examine the range of bactericidal killing of these BPI functional domain peptides.

E. coli O18:K1:H7 = assay: Radial diffusion bactericidal assay, E. coli O18:K1:H7; format: cell-based; conditions: FIG. 11b; up to about 2000 pmol
Pseudomonas aeruginosa = assay: Radial diffusion bactericidal assay, Pseudomonas aeruginosa; format: cell-based; conditions: FIG. 11a; up to about 2000 pmol
ATIII/heparin complexes = assay: Thrombin inactivation by ATIII/heparin complexes (Chromostrate anti-thrombin assay); format: biochemical; conditions: 1.0 to 100 μg/mL
Description: BPI functional domain peptides BPI.2, BPI.3, BPI.4, BPI.5, BPI.6, and BPI.8, along with rBPI23 as a positive control, were assayed for their effect on thrombin inactivation by ATIII/heparin complexes according to the method of Example 3 in copending and co-assigned U.S. patent application Ser. No. 08/093,202, filed Jul. 15, 1993, incorporated by reference. Specifically, a Chromostrate™ anti-thrombin assay kit (Organon Teknika Corp., Durham, N.C.) was used to examine the inhibition of purified thrombin by preformed ATIII/heparin complexes in plasma.
Briefly, the assay was performed in 96 well microtiter plates in triplicate with a final volume per well of 200 μL. Varying concentrations of the BPI functional domain peptides ranging from 1.0 μg/mL to 100 μg/mL were assayed to determine their effect on thrombin inhibition in the presence of pre-formed ATIII/heparin complexes. The order of addition of assay components was as follows: 1) a dilution series of rBPI23 or BPI functional domain peptides or thaumatin as a control protein, with final concentrations of 100, 50, 25, 10 and 1 μg/well, diluted in PBS in a final volume of 50 μL; 2) 50 μL plasma diluted 1:100 in a buffer supplied by the manufacturer, 3) 50 μl thrombin at 1 nKat/mL in a buffer supplied by the manufacturer, and 4) 50 μL chromogenic substrate at a concentration of 1 μmol/mL in water. The reaction was allowed to proceed for 10 minutes at 37° C. and stopped with the addition of 50 μL 0.1M citric acid. The colorimetric reaction was quantitated on a microplate reader as described in Example 3.

[5] = In vivo APTT in heparinized rats; set-up: species or system Sprague-Dawley rats; conditions: 100 U/kg heparin i.v., test protein 5 minutes later, blood 2 minutes after
Description: The in vivo effect of exemplary BPI combination peptides on APTT in heparinized rats was determined and compared with the in vivo effect of rBPI23. APTT is lengthened by the presence of endogenous or exogenous inhibitors of thrombin formation, such as therapeutically administered heparin. Agents which neutralize the anti-coagulant effects of heparin will reduce the APTT as measured by this test. Sprague-Dawley rats housed under NIH guidelines were administered with 100 U/kg heparin by bolus intravenous injections via the animals' tail vein followed 5 minutes later by administration of varying amounts of test or control protein as compared with rBPI23. The APTT was then determined from blood samples collected from the abdominal aorta 2 minutes after the administration of the test or control protein. The APTT of untreated animals, as well as animals treated only with a BPI peptide, was also determined.

[6] = system: LPS-stimulated NO production by RAW 264.7 cells; assay: LPS-stimulated NO production by RAW 264.7 cells; format: cell-based, mouse
Description: An additional LPS neutralization screening assay for BPI functional domain peptides was developed using an assay for NO production in mouse cells treated with LPS (see Lorsbach et al., 1993, J. Biol. Chem. 268: 1908-1913). In this assay, mouse RAW 264.7 cells (ATCC Accession No. TIB71) were treated with bacterial LPS. The cells were incubated in 96-well plates and stimulated for 2 hours with E. coli 0113 LPS or zymosan, in the presence or absence of _-interferon, rLBP, fetal bovine serum (FBS) or normal human serum (NHS), or rBPI21Δcys. After this incubation, the cells were washed with fresh media and incubated overnight in media containing 10% FCS. The NO released from the cells accumulated in the media and spontaneously converted to nitrite. This nitrite was assayed in situ by the Griess reaction, as follows. The nitrite was reacted with the primary amine of an added sulfanilamide and formed a diazonium salt. This salt was then reacted with added naphthylethylenediamine to form a red azo-dyc. The Griess reaction was performed at room temperature in about 10 minutes. The amount of produced NO was estimated from a standard curve of Griess reaction products determined spectrophotometrically as Absorbance at a wavelength of 550 nm.

[7] = In vitro heparin-mediated lengthening of APTT / clotting time of heparinized plasma; format: biochemical, human
Description: In vitro, the effect of BPI combination functional domain peptides was determined on heparin-mediated lengthening of activated partial […] (APTT). The APTT is lengthened by the presence of endogenous or exogenous inhibitors of thrombin formation, such as therapeutically administered heparin. Thus, agents which neutralize the anti-coagulant effects of heparin will reduce the APTT measured by the test. Citrated human plasma (200 μL) was incubated for 1 minute at 37° C. with either 15 μL of diluent (0.15 M NaCl, 0.1 M Tris-HCl, pH 7.4) or 15 μL of the diluent also containing 25 μg/mL heparin (187 units/mg). Various concentrations (from 0.0 to 56 μg/mL) of rBPI23, rBPI21Δcys, or BPI combination peptides BPI.29 (the DIII homodimer) and BPI.30 (heterodimer DII+DIII) in a volume of 15 μL were added, followed immediately by 100 μL of thrombin reagent (Catalog No. 845-4, Sigma Chemical Co., St. Louis. MO). Clotting time ([…]) was measured using a BBL Fibrometer (Becton Dickenson Microbiology Systems, Cockeysville, Md.). […] FIG. 12e illustrates the results obtained with BPI.30 on a non-log scale.

IKISGKWKAAKRFLK [BPI.23]
pmol added to well to achieve a 30 mm^2 bactericidal zone, E. coli O111:B4 [1]: 14,445.00 pmol
bactericidal activity (in words) (E. coli O86a:K61): showed bactericidal activity
Heparin Capacity [2]: 285.0 ng
Kd [2]: 693 nM
LAL (relative difference) (E. coli 0113 LPS; alanine variant relative to BPI.2): = (no difference in the LAL assay)
pmol added to well to achieve a 30 mm^2 bactericidal zone, E. coli J5 [3]: 1,330.40 pmol

IKISGKWKAQKRKLK [BPI.120]
pmol added to well to achieve a 30 mm^2 bactericidal zone, E. coli O111:B4 [1]: b (no detectable activity up to 5 μg/well)
pmol added to well to achieve a 30 mm^2 bactericidal zone, S. aureus (Staphylococcus aureus; radial diffusion, PROBIT analysis, S. aureus): b (no detectable activity up to 5 μg/well)
activity against L-form bacteria (in words) [4]: active against these L-form bacteria
pmol added to well to achieve a 30 mm^2 bactericidal zone, E. coli J5 [3]: b (no detectable activity up to 5 μg/well)

KWKAQKRFLK [BPI.8]
bactericidal activity (in words) ([1]; E. coli 0111:B4): little to no bactericidal activity
pmol added to well to achieve a 30 mm^2 bactericidal zone, E. coli O111:B4 [1]: b (no detectable activity up to 5 μg/well)
bactericidal activity (in words) (E. coli O75): no bactericidal activity
heparin binding activity (in words) [2]: little or no heparin binding activity
heparin binding capacity (in words) [2]: low heparin binding capacity
Heparin Capacity [2]: 92.2 ng
Kd [2]: 574 nM
bactericidal activity (in words) (Klebsiella pneumoniae; FIG. 11c, up to about 2000 pmol): no bactericidal activity
bactericidal activity (in words) (Klebsiella pneumoniae; FIG. 10d): no bactericidal activity at concentrations of 800 μg/mL
LAL / LPS inhibition activity (in words) (E. coli 0113 LPS): no significant LPS inhibition activity
bactericidal activity (in words) (E. coli strain 07-K1): low levels of bactericidal activity
bactericidal activity (in words) (Staphylococcus aureus; FIG. 10e): no bactericidal activity at concentrations of 800 μg/mL
bactericidal activity (in words) (E. coli O18:K1:H7): no bactericidal activity
bactericidal activity (in words) [3]: little to no bactericidal activity; also recorded: no detectable bactericidal activity against E. coli J5 cells at concentrations of 1000 μg/mL; also recorded: little or no bactericidal activity
pmol added to well to achieve a 30 mm^2 bactericidal zone, E. coli J5 [3]: 25,695.10 pmol
bactericidal activity (in words) (Pseudomonas aeruginosa): no bactericidal activity

thaumatin [reference compound]
cpm ^3H-Heparin bound [2]: 7,432 ± 83 cpm
heparin neutralization effect (in words) (ATIII/heparin complexes): no neutralizing effect
APTT in heparinized rats (in words) [5]: no effect on APTT times in heparinized animals

B1: rBPI23: recombinant 23 kD amino-terminal fragment, approximately the first 199 amino acid residues of human BPI (protein)
chain: VNPGVVVRISQKGLDYASQQGTAALQKELKRIKIPDYSDSFKIKHLGKGHYSFYSMDIREFQLPSSQISMVPNVGLKFSISNANIKISGKWKAQKRFLKMSGNFDLSIEGMSISADLKLGSNPTSGKPTITCSSCSSHINSVHVHISKSKVGWLIQLFHKKIESALRN
cpm ^3H-Heparin bound [2]: 51,222 ± 1,808 cpm
IC50 of inhibition of LPS-stimulated NO production [6]: 0.03 to 0.1 µg/mL
IC50 (E. coli 0113 LPS; read-out: IC50 of inhibition of the LPS-induced LAL reaction): 9 nM
bactericidal activity (in words) (E. coli strain 07-K1): no bactericidal activity at concentrations of 100 μg/mL; also recorded: low bactericidal activity even at concentrations of 1000 μg/mL
effect on the clotting time of heparinized blood (in words) ([7]; FIG. 12g): smaller effect
effect on heparin-mediated lengthening of APTT (in words) ([7]; citrated human plasma, 25 μg/mL heparin, 0.0 to 56 μg/mL): inhibits the heparin-mediated lengthening of APTT
APTT in heparinized rats (in words) [5]: administration of about 5 mg/kg results in a APTT of the heparinized and BPI-treated animals that is almost the same as the untreated control animals
lowest amount with measurable bactericidal activity [3]: 0.75 pmol/well
bactericidal activity (in words) [3]: showed bactericidal activity
